Test results taken from patent US9839642B2, “Beta-tetrazolyl-propionic acids as metallo-beta-lactamase inhibitors” (priority 2014, dated 2017).
Where two headings read alike, the source gives them in different places.

Tests used:
IMP-1 = IMP-1 (Serratia marcescens, UniProt P52699); assay: Enzyme activity: determination of IC50, fluorescence assay with CCF2-FA substrate; type: biochemical; settings: CCF2-FA 1.25 μM, 2 hours at 25° C., read-out: IMP1 IC50
Description: (§1) Enzyme Activity: Determination of IC50
(§2) The Class B enzyme activities were measured in the presence of a compound of the EXAMPLES as a test inhibitor in a fluorescence assay against a commercially available substrate consisting of a cephalosporin core linking 7-hydroxycoumarin to fluorescein (CCF2-FA; Life Technologies, Grand Island, N.Y.). The enzyme (NDM-1, IMP-1 or VIM-1) and the substrate were diluted in 100 mM KH2PO4 buffer (pH 7) containing 0.005% Tween-20 and 10 μM ZnSO4. In the assay, the final concentration of enzyme was 1 pM, 2 pM and 30 pM for NDM-1, IMP-1 and VIM-1, respectively, and the final concentration of CCF2-FA was 1.25 μM. The test inhibitor was dissolved in DMSO and diluted 1:50 in the assay, resulting in a final concentration range of 20 μM to 0.00063 μM. In a 384-well microplate, the test inhibitor was incubated with the metallo-β-lactamase enzyme and the substrate for 2 hours at 25° C. Fluorescence at 460 nm following excitation at 405 nm was measured. The IC50 value was determined from semi-logarithmic plots of enzyme inhibition versus inhibitor concentration, with a curve generated using a 4-parameter fit.

VIM-1 = VIM-1 (Pseudomonas aeruginosa, UniProt A0A0F7KYQ8); assay: as above; type: biochemical; settings: CCF2-FA 1.25 μM, 2 hours at 25° C., read-out: VIM1 IC50
Description: as §1, §2

NDM-1 = NDM-1 (Klebsiella pneumoniae, UniProt C7C422); assay: as above; type: biochemical; settings: CCF2-FA 1.25 μM, 2 hours at 25° C., read-out: NDM1 IC50
Description: as §1, §2

[1] = test system: Serratia marcescens expressing IMP-1 (CL5741); assay: Antibiotic potentiation activity: synergistic concentration (MITC95) with imipenem, growth by OD600; type: cell-based
Description: (§3) Antibiotic Potentiation Activity: Determination of Synergistic Concentration
(§4) The bacterial strains tested included the clinical strains Escherichia coli expressing NDM-1 (CLB30005, CLB30016), Serratia marcescens expressing IMP-1 (CL5741), and Klebsiella pneumoniae expressing VIM-1 (IHMA599644). Inhibitor activity was measured in the presence and absence of imipenem or ceftazidime in a 384-well microplate.
(§5) The clinical strains CLB30016, CL5741, and IHMA599644 were grown on trypticase soy agar containing 5% sheep's blood. The clinical strain CLB30005 was grown on Mueller Hinton broth agar containing 8 μg/ml imipenem. The bacteria on agar plates were incubated overnight at 35° C. with ambient humidity (achieved from an open pan of water inside the incubator). The following day, individual colonies from each clinical strain were picked and resuspended in 5 ml saline to attain an OD600 of 0.14, 0.11, 0.15 and 0.13, for CLB30005, CLB30016, CL5741 and IHMA599644, respectively. These were further diluted 1:100 into 1.1×CAMHB and used to inoculate the test wells as described below.
(§6) Imipenem in 10 mM 3-(N-morpholino)propanesulfonic acid (MOPS, pH 7) was stored in single use aliquots at −80° C. Test inhibitors were dissolved in DMSO and diluted 1:50 in the assay, resulting in a final concentration range of 200 μM to 0.195 μM. On the day of the assay, 4 μl of antibiotic was added to 45 μl of bacteria followed by 1 μl of test compound and mixed by pipetting and with an orbital shaker. The concentration of antibiotic used in the assay was 1 μg/ml or 4 μg/ml. Microplates were covered and incubated at 35° C. for 22 hours to 24 hours. At the end of the incubation, absorbance was determined using a spectrophotometer. The synergistic concentration of MBLI was determined by identifying the lowest concentration of test compound in the presence of a given concentration of antibiotic that was required to inhibit 95% of the growth of the bacteria.
(§7) Representative compounds of the present invention display a synergistic effect. For example, representative compounds of EXAMPLES 1-456 were determined to restore susceptibility to imipenem at concentrations of 200 μM or less.

[2] = test system: Klebsiella pneumoniae expressing VIM-1 (IHMA599644); assay: as above; type: cell-based
Description: as §3, §4, §5, §6, §7

[3] = test system: Escherichia coli expressing NDM-1 (CLB30016); assay: as above; type: cell-based
Description: as §3, §4, §5, §6, §7

[4] = S. marcescens CL5741 (IMP-1), 95% inhibition of growth
[5] = K. pneumoniae IHMA599644 (VIM-1), 95% inhibition of growth
[6] = E. coli CLB30016 (NDM-1), 95% inhibition of growth
[7] = 95% inhibition of bacterial growth, strain CL5741
[8] = 95% inhibition of bacterial growth, strain IHMA599644
[9] = 95% inhibition of bacterial growth, strain CLB30016

IMP-1, sequence (P52699 19-246, looked up, species assumed): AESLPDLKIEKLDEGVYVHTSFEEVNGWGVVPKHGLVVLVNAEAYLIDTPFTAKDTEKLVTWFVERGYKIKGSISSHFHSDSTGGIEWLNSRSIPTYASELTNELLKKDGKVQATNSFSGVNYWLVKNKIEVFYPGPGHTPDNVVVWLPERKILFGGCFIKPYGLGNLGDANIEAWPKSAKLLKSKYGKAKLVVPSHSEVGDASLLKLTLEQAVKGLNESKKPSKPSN
NDM-1, sequence (C7C422 29-270, looked up, species assumed): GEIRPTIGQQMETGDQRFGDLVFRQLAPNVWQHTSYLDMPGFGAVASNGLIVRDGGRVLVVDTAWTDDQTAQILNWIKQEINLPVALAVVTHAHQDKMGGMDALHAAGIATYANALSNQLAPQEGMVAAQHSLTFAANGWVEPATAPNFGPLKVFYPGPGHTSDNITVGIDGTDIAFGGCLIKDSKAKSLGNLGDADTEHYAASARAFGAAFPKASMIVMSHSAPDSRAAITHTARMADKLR

Compound | IC50 (IMP-1; IMP-1 enzyme 2 pM) | IC50 (VIM-1; VIM-1 enzyme 30 pM) | IC50 (NDM-1; NDM-1 enzyme 1 pM) | IMP1 SM5741 MITC95 [1, 4] | VIM1 KP599644 MITC95 [2, 5] | NDM1 EC30016 MITC95 [3, 6] | IC50 (IMP-1; enzyme 2 pM) | IC50 (VIM-1; enzyme 30 pM) | IC50 (NDM-1; enzyme 1 pM) | IMP1 SM5741 MITC95 [1, 7] | VIM1 KP599644 MITC95 [2, 8] | NDM1 EC30016 MITC95 [3, 9]
CCC[C@H](C(=O)O)[C@H](Cc1ccc(C2CCNCC2O)cc1)c1nnn[nH]1 (mixture of isomers) [Example 416, (2S)-2-((1S)-2-(4-(3-hydroxypiperidin-4-yl)phenyl)-1-(1H-tetrazol-5-yl)ethyl)pentanoic acid] | 1140 nM | 20.8 nM | 280 nM | 25 µM | 25 µM | 25 µM | – | – | – | – | – | –
CCC[C@H](C(=O)O)C(Cc1cccc(C(F)(F)F)c1)c1nnn[nH]1 (stereo in doubt) [Example 267, (2S)-2-{(1S)-1-(1H-tetrazol-5-yl)-2-[3-(trifluoromethyl)phenyl]ethyl}pentanoic acid] | 280 nM | 0.86 nM | 14 nM | 9.4 µM | 18.8 µM | 9.4 µM | – | – | – | – | – | –
CCC[C@H](C(=O)O)C(Cc1ccccc1C(F)(F)F)c1nnn[nH]1 (stereo in doubt) [Example 268, (2S)-2-{(1S)-1-(1H-tetrazol-5-yl)-2-[2-(trifluoromethyl)phenyl]ethyl}pentanoic acid] | 2700 nM | 3.2 nM | 6.4 nM | 75 µM | 12.5 µM | 7.8 µM | – | – | – | – | – | –
CCC[C@H](C(=O)O)[C@H](Cc1cccc(Br)c1)c1nn[nH]n1 [Example 16, (S)-2-((S)-2-(3-bromophenyl)-1-(2H-tetrazol-5-yl)ethyl)pentanoic acid] | – | – | – | – | – | – | 120 nM | 0.75 nM | 12 nM | 4.7 µM | 9.4 µM | 9.4 µM
CC(C)C[C@H](C(=O)O)[C@H](Cc1ccc(Br)c(F)c1)c1nnn[nH]1 [Example 23, (2S)-2-[(1S)-2-(4-bromo-3-fluorophenyl)-1-(1H-tetrazol-5-yl)ethyl]-4-methylpentanoic acid] | – | – | – | – | – | – | 88 nM | 1.4 nM | 20 nM | 3.1 µM | 31 µM | 6.3 µM
CC(C)C[C@H](C(=O)O)[C@H](Cc1cc(F)cc(Br)c1)c1nnn[nH]1 [Example 24, (2S)-2-[(1S)-2-(3-bromo-5-fluorophenyl)-1-(1H-tetrazol-5-yl)ethyl]-4-methylpentanoic acid] | – | – | – | – | – | – | 230 nM | 0.6 nM | 18 nM | 4.7 µM | 12.5 µM | 9.4 µM
CC(C)C[C@H](C(=O)O)[C@H](Cc1ccc(Br)cc1)c1nnn[nH]1 [Example 25, (2S)-2-[(1S)-2-(4-bromophenyl)-1-(1H-tetrazol-5-yl)ethyl]-4-methylpentanoic acid] | – | – | – | – | – | – | 87 nM | 2.6 nM | 32 nM | 3.1 µM | 12.5 µM | 4.7 µM
CC(C)[C@H](C(=O)O)[C@H](Cc1csc(C2=CCNC2)n1)c1nnn[nH]1 [Example 71, (2S,3S)-4-(2-(2,5-dihydro-1H-pyrrol-3-yl)thiazol-4-yl)-2-isopropyl-3-(1H-tetrazol-5-yl)butanoic acid] | – | – | – | – | – | – | – | 120 nM | 570 nM | >200 µM | 25 µM | 12.5 µM
CCC[C@H](C(=O)O)[C@H](Cc1cnc(N2CCNCC2)s1)c1nnn[nH]1 [Example 120, (S)-2-((S)-2-(2-(piperazin-1-yl)thiazo1-5-yl)-1-(1H-tetrazol-5-yl)ethyl)pentanoic acid] | – | – | – | – | – | – | – | 8.5 nM | 1200 nM | >200 µM | 37 µM | 25 µM
CC(C)C[C@H](C(=O)O)[C@H](Cc1ccc(N2CC(N3CCNCC3)C2)nc1)c1nnn[nH]1 [Example 324, (2S)-4-methyl-2-[(1S)-2-[6-(3-piperazin-1-ylazetidin-1-yl)pyridin-3-yl]-1-(1H-tetrazol-5-yl)ethyl]pentanoic acid] | – | – | – | >200 µM | >200 µM | >200 µM | – | – | – | – | – | –
CC(C)C[C@H](C(=O)O)[C@H](Cc1ccc(N2CC(N3CCNCC3)C2)nc1)c1nnn[nH]1 [Example 334, (2S)-4-methyl-2-[(1S)-2-[6-(3-piperazin-1-ylazetidin-1-yl)pyridin-3-yl]-1-(1H-tetrazol-5-yl)ethyl]pentanoic acid] | – | – | – | 25 µM | 50 µM | 6.2 µM | – | – | – | – | – | –
CC(C)C[C@H](C(=O)O)[C@H](Cc1ccc(Oc2ccc(CCN)cc2)nc1)c1nn[nH]n1 [Example 371, (2S)-2-[(1S)-2-{6-[4-(2-aminoethyl)phenoxy]pyridin-3-yl}-1-(2H-tetrazol-5-yl)ethyl]-4-methylpentanoic acid] | 290 nM | – | 93 nM | 12.5 µM | 75 µM | 12.5 µM | – | – | – | – | – | –
CC(C)C[C@H](C(=O)O)[C@H](Cc1ccc(Oc2ccccc2N2CCNCC2)nc1)c1nn[nH]n1 [Example 372, (2S)-4-methyl-2-[(1S)-2-[6-(2-piperazin-1-ylphenoxy)pyridin-3-yl]-1-(2H-tetrazol-5-yl)ethyl]pentanoic acid] | 1600 nM | – | 570 nM | 75 µM | >200 µM | 38 µM | – | – | – | – | – | –
CC(C)C[C@H](C(=O)O)[C@H](Cc1ccc(Oc2ccccc2N2CCNCC2)nc1)c1nn[nH]n1 [Example 387, (2S)-4-methyl-2-[(1S)-2-[6-(2-piperazin-1-ylphenoxy)pyridin-3-yl]-1-(2H-tetrazol-5-yl)ethyl]pentanoic acid] | 2400 nM | – | 880 nM | >200 µM | >200 µM | >200 µM | – | – | – | – | – | –
CC(C)C[C@H](C(=O)O)[C@H](Cc1ccc(Oc2ccc(CCN)cc2)nc1)c1nn[nH]n1 [Example 392, (2S)-2-[(1S)-2-{6-[4-(2-aminoethyl)phenoxy]pyridin-3-yl}-1-(2H-tetrazol-5-yl)ethyl]-4-methylpentanoic acid] | 270 nM | – | 49 nM | 25 µM | 75 µM | 6.2 µM | – | – | – | – | – | –
CC(C)(C)[C@H](C(=O)O)[C@H](Cc1ccc(NCCO)nc1)c1nnn[nH]1.O=C(O)C(F)(F)F [Example 428, 2,2,2-trifluoroacetate] | 18.8 nM | 37.2 nM | 45.4 nM | – | – | – | – | – | – | – | – | –
CC(C)(C)[C@H](C(=O)O)[C@H](Cc1ccc(NCCO)nc1)c1nnn[nH]1.O=C(O)C(F)(F)F [Example 428] | – | – | – | 1.563 µM | 12.5 µM | 0.7813 µM | – | – | – | – | – | –
